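Dose response: 5 concentrations. Exposure: 48 h. Format: 96-well plates. Endpoint: linear interpolation; highest concentration if not reached. GI50 = concentration required for 50% inhibition of growth. Definition used: TGI = concentration required for complete inhibition of growth.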

Test in all cases: inhibition of tumour cell growth, NCI panel, 48 h
Test [1] relates to 786-0 renal.
Test [2] has as its system ACHN renal.
For test [3], the system named is CCRF-CEM leukemia.
Test [4] relates to HL-60(TB) leukemia.
Test [5] has as its system HOP-62 NSCLC.
Test [6] has as its system MDA-MB-231 breast.
Test [7] deals with NCI-H23 lung.
Test [8] deals with PC-3 prostate.
Test [9] relates to RXF 393 renal.
Test [10] concerns SNB-75 CNS.

For the molecule `COC(=O)C1=C(C(=O)Nc2cccnc2)C2OC1(C(Cc1ccccc1)Oc1ccccc1)C1OC21` (stereo not given), the GI50 was 1690 nM in test [1]; 1.49 µM in test [2]; 360 nM in [3]; 569 nM in test [4]; 13.2 µM in test [5]; 2770 nM in [6]. Further, the GI50 in test [7] is 12.3 µM; in test [8], 9620 nM; in [9] it was 1710 nM; in test [10], 8.28 µM. Moreover, the TGI amounted to 3.33 µM in [1]; 3 µM in test [2]; 2.14 µM in [3]; 2.75 µM in [4]; 26.1 µM in [5]; 6.52 µM in test [6]. For the same molecule, the TGI in test [7] is 29.1 µM; in test [8], 21.9 µM; in [9], 3.22 µM; in test [10] it was 21.1 µM.

On to `COc1cc(C2=Nc3c/c(=C\c4c(O)[nH]c5ccc(Cl)cc45)ccc3=N2)cc(OC)c1OC`, for which the GI50 was 2890 nM in [1]; 6.67 µM in [2]; 2290 nM in test [3]; 3130 nM in test [4]; 1.95 µM in test [5]; 1500 nM in test [6]. The GI50 is 1.96 µM in test [7], 2940 nM in test [8], 2780 nM in test [9] and 1.78 µM in test [10]. Moreover, the TGI in test [1] is 9.91 µM; in test [2], 24.2 µM; in test [3] it was 8.55 µM; in [4], 14.6 µM; in test [5], 4.09 µM; in test [6], 6.26 µM. Further, the TGI is 7.61 µM in [7], 14.3 µM in test [8], 7.38 µM in [9] and 10.6 µM in test [10].

`COC(=O)c1c2c(c[n+]([O-])c1C)C(=O)C(NCc1ccccc1)=CC2=O`: the GI50 is 1690 nM in [1]; 1.02 µM in test [2]; 512 nM in test [3]; 256 nM in [4]; 1.42 µM in test [5]; 333 nM in [6]. For the same molecule, the GI50 in test [7] was 0.485 µM; in [8], 274 nM; in test [9], 1050 nM; in test [10], 1.76 µM. Moreover, the TGI was 3.8 µM in test [1]; 2.2 µM in [2]; over 25.8 µM in test [3]; 0.667 µM in test [4]; 2.94 µM in [5]; 2.27 µM in test [6]. Besides, the TGI was 2.6 µM in test [7], 1.91 µM in [8], 2.48 µM in [9] and 3.27 µM in test [10].

In the case of `CCOc1ccc(/C=N/Nc2cc(C)nc3ccc(Cl)cc23)cc1`, the GI50 was 1570 nM in [1]; 1.78 µM in test [2]; 1470 nM in test [3]; 1860 nM in test [4]; 2.31 µM in test [5]; 1830 nM in [6]. Moreover, the GI50 was 1.76 µM in test [7], 1510 nM in test [8], 1660 nM in test [9] and 1.86 µM in test [10]. Besides, the TGI in test [1] is 3.03 µM; in test [2], 3.17 µM; in test [3] it was 3.76 µM; in [4], 3.73 µM; in test [5], 6.53 µM; in [6] it was 3.38 µM. In addition, the TGI in [7] came to 3.32 µM; in [8], 3.14 µM; in test [9] it was 3.06 µM; in test [10], 3.64 µM.

For the molecule `COc1ccccc1/C=C1\CCC(CN(C)C)C1=O` (stereo not given), the TGI in test [1] came to 5.08 µM; in test [2] it was 15.2 µM; in [3], 8.47 µM; in test [4] it was 6.68 µM; in test [5], 36.4 µM; in test [6], 5.78 µM. The TGI in [7] worked out at 25.1 µM; in [8], 18 µM; in test [9], 9.13 µM; in test [10] it was 17.8 µM.

Take `O=Cc1ncc(-c2ccc(C(F)(F)F)cc2)c(NC2CCCCCC2)n1`: the GI50 in [1] is over 10000 nM; in [2], over 10 µM; in test [3] it was over 10000 nM; in [4], over 10000 nM; in test [5], over 10 µM; in test [6], over 10000 nM. For the same molecule, the GI50 in [7] is over 10 µM; in test [8], over 10000 nM; in test [9] it was over 10000 nM; in [10], over 10 µM. In addition, the TGI in test [1], in [2], in test [3], in [4], in test [5] and in test [6] was over 10 µM each time. Moreover, the TGI in test [7], in [8], in test [9] and in test [10] was over 10 µM each time.

On to `Clc1ccc(N/N=C/c2ccccn2)nc1`, for which the GI50 in [1] was 339 nM; in test [2], 0.379 µM; in [3], 332 nM; in test [4], 318 nM; in test [5], 0.421 µM; in test [6], 463 nM. In addition, the GI50 in [7] is 0.579 µM; in test [8], 578 nM; in test [9], 492 nM; in [10], 1.74 µM. The TGI in [1] was over 100 µM; in test [2] it was over 100 µM; in test [3] it was over 100 µM; in test [4], 1.31 µM; in test [5], over 80.3 µM; in [6], over 100 µM. Also, the TGI in test [7] is over 100 µM; in test [8] it was over 100 µM; in [9], 15.7 µM; in test [10], over 45.8 µM.

Consider `C=C1C(=O)O[C@H]2[C@H]1CC/C(COC(=O)NCc1c[nH]c3ccc(OC)cc13)=C\CC[C@@]1(C)O[C@@H]21`, for which the GI50 in test [1] was 445 nM; in test [2], 0.729 µM; in [3] it was 152 nM; in [4], 255 nM; in test [5] it was 10.6 µM; in test [6], 1920 nM. Further, the GI50 in [7] was 3 µM; in test [8], 1070 nM; in test [9], 1180 nM; in [10] it was 11 µM. Also, the TGI in [1] is 1.8 µM; in test [2], 2.01 µM; in test [3], 1.07 µM; in test [4] it was 1.88 µM; in test [5], 24.1 µM; in test [6], 4.3 µM. In addition, the TGI in test [7] stood at 9.33 µM; in test [8], 2.59 µM; in [9], 2.52 µM; in [10] it was 23.5 µM.

In the case of `CC(/C=C/C=C/C=C/C=C/C=C/C(O)=C1/C(=O)C(CCC(=O)O)N(C)C1=O)=C\C(C)C(OC1CC(O)C(O)C(C)O1)C(C)C` (stereo not given), the TGI in test [1] worked out at 11.1 µM; in test [2], 10.4 µM; in test [3], 8.47 µM; in [4] it was 6.07 µM; in test [5] it was 3.68 µM; in test [6] it was 12.2 µM. In addition, the TGI in [7] stood at 9.75 µM; in test [8], 16.6 µM; in test [9], 11.2 µM; in test [10] it was 22.8 µM.

In the case of `CC(C)Cc1ccc(C(C)/C=C2\CCC(CN3CCOCC3)C2=O)cc1` (stereo not given), the TGI in [1] was determined as 3.21 µM; in [2], 29.4 µM; in test [3] it was 17.8 µM; in [4] it was 20.7 µM; in test [5] it was 19.3 µM; in test [6], 4.2 µM. The TGI was 29.4 µM in test [7], 25.4 µM in [8], 22 µM in test [9] and 22.1 µM in test [10].

As to `Clc1ccc(-c2nc(-c3c[nH]c4ncccc34)cs2)cc1`, the GI50 is over 100000 nM in test [1]; over 100 µM in test [2]; over 100000 nM in test [3]; over 100000 nM in test [4]; over 100 µM in test [5]; over 100000 nM in test [6]. Besides, the GI50 in test [7] is 97.7 µM; in test [8], over 100000 nM; in test [9], over 100000 nM; in [10] it was over 100 µM. Further, the TGI in test [1], in test [2], in test [3], in test [4], in [5] and in test [6] was over 100 µM in each case. Further, the TGI in [7], in test [8], in test [9] and in [10] was over 100 µM in each case.

On to `CCS(=O)(=O)c1ccc(OC)c(Nc2ncc(-c3cccc(-c4ccccc4F)c3)o2)c1`, for which the GI50 in [1] is 20300 nM; in test [2], 13.1 µM; in test [3], over 25000 nM; in test [4], over 25000 nM; in [5], over 19.9 µM; in test [6], 14100 nM. For the same molecule, the GI50 in test [7] was over 23.8 µM; in [8], 15500 nM; in test [9], 2450 nM; in test [10], 4.77 µM. Further, the TGI in test [1], in [2], in test [3], in test [4], in [5] and in test [6] was over 25 µM in each case. For the same molecule, the TGI in test [7] is over 25 µM; in [8], over 25 µM; in test [9], over 17.9 µM; in [10], 24.3 µM.

`Nc1cccc(-c2nc3sccn3c2-c2ccnc(NCCCNS(=O)(=O)c3ccc(C(F)(F)F)cc3)n2)c1`: the GI50 in test [1] was 5740 nM; in test [2] it was 3.34 µM; in [3], 3060 nM; in test [4] it was 3280 nM; in test [5] it was 5.16 µM; in [6], 4850 nM. The GI50 in test [7] was 5.07 µM; in test [8], 2410 nM; in [9], 6290 nM; in test [10], 1.83 µM. For the same molecule, the TGI was over 100 µM in [1]; 27.1 µM in test [2]; 14.4 µM in test [3]; 11.8 µM in test [4]; 24.3 µM in test [5]; 94 µM in test [6]. The TGI in [7] is 40.9 µM; in test [8], 11.9 µM; in test [9], over 100 µM; in [10], 23.1 µM.

On to `COc1ccc(C2=C(Br)C(=O)OC2)cc1Cl`, for which the GI50 was 34000 nM in [1]; 19.3 µM in test [2]; 21900 nM in test [3]; 42800 nM in [4]; 44.4 µM in test [5]; 24700 nM in test [6]. Further, the GI50 in test [7] was 29.5 µM; in test [8], 33100 nM; in test [9], 26800 nM; in [10], 55.8 µM. For the same molecule, the TGI is over 100 µM in test [1]; 39.9 µM in [2]; over 68 µM in [3]; over 100 µM in [4]; over 100 µM in [5]; 69.9 µM in test [6]. The TGI in test [7] was over 100 µM; in test [8] it was over 91.5 µM; in test [9], over 72.4 µM; in [10], over 100 µM.

In the case of `Clc1cccc(Cn2cc(Cc3cn(Cc4cccc(Cl)c4)c4ccccc34)c3ccccc32)c1`, the GI50 in [1] is over 100000 nM; in test [2] it was over 100 µM; in test [3], over 100000 nM; in [4], over 100000 nM; in test [5] it was over 100 µM; in [6] it was 52000 nM. Further, the GI50 in test [7] was over 100 µM; in [8] it was over 100000 nM; in test [9], over 100000 nM; in test [10], over 100 µM. The TGI in [1], in test [2], in test [3], in [4], in test [5] and in test [6] was over 100 µM throughout. The TGI in test [7], in test [8], in test [9] and in [10] was over 100 µM in each case.

With `CNC(=O)c1cc(Oc2ccc3nc(NC(=O)c4cc(C(F)(F)F)cc(C(F)(F)F)c4)sc3c2)ccn1`, the GI50 was 2550 nM in [1]; 3.26 µM in test [2]; 3470 nM in test [3]; 2490 nM in test [4]; 3.36 µM in [5]; 2880 nM in test [6]. Moreover, the GI50 was 3.37 µM in test [7], 2530 nM in test [8], 2790 nM in test [9] and 3.13 µM in [10]. Besides, the TGI in test [1] is 8.07 µM; in test [2], 11.8 µM; in test [3], over 100 µM; in [4], 5.11 µM; in test [5] it was 10.8 µM; in [6], 6.63 µM. Further, the TGI in [7] was found to be 17.7 µM; in [8] it was 12.8 µM; in test [9], 8.37 µM; in [10], 14.8 µM.

Values taken from PubChem BioAssay (NCI).
